Data from ChEMBL document CHEMBL1201862, “PubChem BioAssay data set” (2004).
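Cells were grown in 96-well plates and exposed to each compound for 48 hours at five concentrations; endpoints were interpolated linearly between bracketing concentrations, or set to the highest concentration if not reached. GI50 is the concentration that inhibits growth by half.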 Activity calls are given as the source filed them. Cut-off read from the data, not from the text of the source: active = GI50 up to about 1.1 µM and inactive = higher.

Legend:
Experiment in all cases: growth of human tumour cells (NCI), 48 h
Hs-578T = tested on: Hs-578T
DU-145 = tested on: DU-145
PC-3 = tested on: PC-3
MDA-N = tested on: MDA-N
MDA-MB-435 = tested on: MDA-MB-435
DMS-273 = tested on: DMS-273
HOP-18 = tested on: HOP-18
RXF 631 = tested on: RXF 631
DLD-1 = tested on: DLD-1

SMILES: CN(C)c1ccc(/C=C2\C[C@H]3[C@@H]4CCc5cc(O)ccc5[C@H]4CC[C@]3(C)C2=O)cc1
- GI50 (Hs-578T): 10.5 µM (inactive)
- GI50 (DU-145): > 100 µM (inactive)
- GI50 (PC-3): > 100 µM (inactive)
- GI50 (MDA-N): > 100 µM (inactive)
- GI50 (MDA-MB-435): > 100 µM (inactive)

SMILES: NNc1nc2ccccc2s1
- GI50 (Hs-578T): > 100 µM (inactive)
- GI50 (DU-145): > 100 µM (inactive)
- GI50 (PC-3): > 100 µM (inactive)
- GI50 (MDA-N): > 100 µM (inactive)
- GI50 (MDA-MB-435): > 100 µM (inactive)

SMILES: CCn1c2ccccc2c2cc(NC(=O)c3c(C)[nH]c(=O)[nH]c3=S)ccc21
- GI50 (Hs-578T): 50.4 µM (inactive)
- GI50 (DU-145): 42.1 µM (inactive)
- GI50 (PC-3): 31.8 µM (inactive)
- GI50 (MDA-N): 29.2 µM (inactive)
- GI50 (MDA-MB-435): 22.6 µM (inactive)

SMILES: COc1cccc(NC(=O)CC(=O)NNCC(=O)Nc2nnc(-c3ccc(N(CCC#N)S(=O)(=O)c4ccccc4)cc3)s2)c1
- GI50 (DMS-273): 72.1 µM (inactive)
- GI50 (HOP-18): > 100 µM (inactive)
- GI50 (RXF 631): > 100 µM (inactive)
- GI50 (DLD-1): 45.1 µM (inactive)

SMILES: CN1CC2(CCCCC2)C(O)C12C=CCCC2 (stereo not given)
- GI50 (DMS-273): > 100 µM (inactive)
- GI50 (DLD-1): > 100 µM (inactive)

SMILES: C1=Cc2nccc3cc4c(c(c23)N1)OCO4
- GI50 (Hs-578T): 3.58 µM (inactive)
- GI50 (DU-145): 6.15 µM (inactive)
- GI50 (PC-3): 11.6 µM (inactive)
- GI50 (MDA-N): 8.02 µM (inactive)
- GI50 (MDA-MB-435): 12.7 µM (inactive)

SMILES: COc1ccc(/C(Cl)=C(\C=O)c2ccc(Cl)c(Cl)c2)cc1OC
- GI50 (DMS-273): 6.73 µM (inactive)
- GI50 (HOP-18): 6.76 µM (inactive)
- GI50 (RXF 631): 4.57 µM (inactive)
- GI50 (DLD-1): 4.46 µM (inactive)

SMILES: C1CCC(OC2CSC2)OC1 (stereo not given)
- GI50 (Hs-578T): > 100 µM (inactive)
- GI50 (DU-145): > 100 µM (inactive)
- GI50 (PC-3): > 100 µM (inactive)
- GI50 (MDA-N): > 100 µM (inactive)
- GI50 (MDA-MB-435): > 100 µM (inactive)

SMILES: CN1c2ccccc2NC(CC(=O)O)C2CC=CN21 (stereo not given)
- GI50 (DMS-273): > 100 µM (inactive)
- GI50 (HOP-18): 0.117 µM (active)
- GI50 (RXF 631): > 100 µM (inactive)

SMILES: CCc1cc(=O)n(/C(C)=C/c2ccccc2)n1C
- GI50 (Hs-578T): > 100 µM (inactive)
- GI50 (DU-145): > 100 µM (inactive)
- GI50 (PC-3): > 100 µM (inactive)
- GI50 (MDA-N): > 100 µM (inactive)
- GI50 (MDA-MB-435): > 100 µM (inactive)

SMILES: COc1cc(C(C)O)c[n+](Cc2ccccc2)c1 (stereo not given)
- GI50 (DMS-273): > 100 µM (inactive)
- GI50 (HOP-18): > 100 µM (inactive)
- GI50 (RXF 631): > 100 µM (inactive)
- GI50 (DLD-1): > 100 µM (inactive)

SMILES: COc1cc2ccnc3c2c(c1OC)N(C)C=C3
- GI50 (Hs-578T): 29.3 µM (inactive)
- GI50 (DU-145): 34.5 µM (inactive)
- GI50 (PC-3): 31.9 µM (inactive)
- GI50 (MDA-N): 19.1 µM (inactive)
- GI50 (MDA-MB-435): 31.5 µM (inactive)

SMILES: O=C(CC(=O)N1N=C(c2ccccc2)C(/N=N/c2ccc(C(=O)O)cc2)C1=O)Nc1ccc(F)cc1 (stereo not given)
- GI50 (DMS-273): 27.2 µM (inactive)
- GI50 (RXF 631): 36.4 µM (inactive)
- GI50 (DLD-1): 20.9 µM (inactive)

SMILES: CCOC(=O)C(C)N1C(=O)c2ccccc2S1(=O)=O (stereo not given)
- GI50 (DMS-273): > 100 µM (inactive)
- GI50 (HOP-18): > 100 µM (inactive)
- GI50 (DLD-1): > 100 µM (inactive)

SMILES: Cc1c2cnccc2c(C)c2c1c1ccccc1n2CCCCCCCl
- GI50 (DMS-273): > 39.8 µM (inactive)
- GI50 (HOP-18): > 7.93 µM (inactive)
- GI50 (DLD-1): > 50 µM (inactive)

SMILES: C#CC(C)(C)Oc1cc(OC)c2c(=O)c3ccccc3n(C)c2c1
- GI50 (Hs-578T): 17.5 µM (inactive)
- GI50 (DU-145): 12.4 µM (inactive)
- GI50 (PC-3): 13.8 µM (inactive)
- GI50 (MDA-N): 12.6 µM (inactive)
- GI50 (MDA-MB-435): 11 µM (inactive)

SMILES: CN(C)C(=O)OC1C(=O)N(C)c2ccc(Cl)cc2C2(c3ccccc3)N1C2(Cl)Cl (stereo not given)
- GI50 (DMS-273): 72.4 µM (inactive)
- GI50 (DLD-1): 55.1 µM (inactive)

SMILES: COc1cc2c3cc1Oc1c(OC)c(OC)cc4c1C(Cc1ccc(cc1)Oc1cc(ccc1O)CC3N(C)CC2)N(C)CC4 (stereo not given)
- GI50 (HOP-18): > 100 µM (inactive)
- GI50 (Hs-578T): 10.8 µM (inactive)
- GI50 (DU-145): 10.6 µM (inactive)
- GI50 (PC-3): 10.4 µM (inactive)
- GI50 (MDA-N): 4.73 µM (inactive)
- GI50 (MDA-MB-435): 8.09 µM (inactive)
- GI50 (DLD-1): 11.4 µM (inactive)

SMILES: CCNc1nnc(-c2nsc3ccccc23)s1
- GI50 (DMS-273): 27.7 µM (inactive)
- GI50 (HOP-18): 11.5 µM (inactive)

SMILES: CCCCCCCC/C=C\CCCCCCCCCCCC(=O)O [ERUCIC ACID]
- GI50 (DMS-273): 22.2 µM (inactive)
- GI50 (HOP-18): 46.2 µM (inactive)
- GI50 (DLD-1): 42.4 µM (inactive)
